Drawing on patent US20050159345A1 (Boehringer Ingelheim International GmbH, priority 2002, published 2005), this text covers IC50 for three compounds.

For assay [1], the target named is T1, HCV 2a-c NS3-NS4A heterodimer protein (UniProt P26660).
T1 sequence (P26660 1031-1661): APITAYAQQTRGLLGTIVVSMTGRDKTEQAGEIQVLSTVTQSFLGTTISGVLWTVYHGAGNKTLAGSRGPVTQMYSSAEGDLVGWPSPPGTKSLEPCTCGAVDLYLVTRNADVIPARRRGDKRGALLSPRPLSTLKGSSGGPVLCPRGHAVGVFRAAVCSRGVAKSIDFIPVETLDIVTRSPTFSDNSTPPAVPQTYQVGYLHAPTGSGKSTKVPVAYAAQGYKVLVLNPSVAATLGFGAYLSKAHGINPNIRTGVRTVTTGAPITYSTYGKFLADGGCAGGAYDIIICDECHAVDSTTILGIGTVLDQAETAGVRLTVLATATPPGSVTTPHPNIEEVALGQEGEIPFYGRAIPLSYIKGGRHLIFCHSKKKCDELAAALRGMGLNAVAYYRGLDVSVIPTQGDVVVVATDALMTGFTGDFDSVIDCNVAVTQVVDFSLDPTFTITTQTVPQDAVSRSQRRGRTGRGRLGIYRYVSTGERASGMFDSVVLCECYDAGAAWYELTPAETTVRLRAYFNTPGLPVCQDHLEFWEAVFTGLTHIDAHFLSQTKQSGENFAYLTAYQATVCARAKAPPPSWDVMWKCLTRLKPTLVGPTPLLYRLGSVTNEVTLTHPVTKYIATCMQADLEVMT
In words: In vitro HCV NS3 protease assay (fluorogenic depsipeptide), genotype 2a-c. In kind it is biochemical, HCV genotype 2a-c. As to conditions: read-out: IC50 HCV-2a-c; HCV 2a-c NS3-NS4A protease. On the procedure: The fluorogenic depsipeptide substrate used to assess inhibition of protease activity of the HCV 1a, 1b, 2b, 2a-c and 3a NS3-NS4A heterodimer protein was anthranilyl-DDIVPAbu[C(O)—O]-AMY(3-NO2)TW—OH (SEQ ID No.10). This substrate is cleaved between the aminobutyric (Abu) and the alanine residues. The sequence DDIVPAbu-AMYTW (SEQ ID No.11) is derived from the sequence DDIVPC—SMSYTW (SEQ ID No.12) corresponding to the NS5A/NS5B natural cleavage site. […] The protease activity was assayed in 50 mM Tris-HCl, pH 8.0, 0.25M sodium citrate, 0.01% n-dodecyl-β-D-maltoside, 1 mM TCEP. The assay was performed in a Microfluor®2 White U-Bottom Microtiter® plate. 5 μM of the substrate and various concentrations of the test compound were incubated with 1.5 nM of HCV 1a or 1b NS3-NS4A heterodimer protein for 45 minutes at 23° C. under gentle agitation. […] The reaction was terminated by the addition of a 1M 2-[N-morpholino]ethanesulfonic acid solution at pH 5.8.
(§1) The fluorescence was monitored using the BMG POLARstar Galaxy 96-well plate reader with an excitation filter of 320 nm, and an emission filter of 405 nm. The level of inhibition (% inhibition) of each well containing test compound was calculated with the following equation (FU=fluorescence unit): [formula]
The calculated % inhibition values were then used to determine IC50, slope factor (n) and maximum inhibition (Imax) by the non-linear regression routine NLIN procedure of SAS using the following equation: [formula] Inhibition Constant (Ki) Determination and mode of Inhibition

The target of assay [2] is T2, HCV 3a NS3-NS4A heterodimer protein (UniProt Q81258).
T2 construct: fused on or other part: 28 extra N-terminal residues with a hexahistidine tag and an rTEV cleavage site
T2 sequence (Q81258 1033-1663): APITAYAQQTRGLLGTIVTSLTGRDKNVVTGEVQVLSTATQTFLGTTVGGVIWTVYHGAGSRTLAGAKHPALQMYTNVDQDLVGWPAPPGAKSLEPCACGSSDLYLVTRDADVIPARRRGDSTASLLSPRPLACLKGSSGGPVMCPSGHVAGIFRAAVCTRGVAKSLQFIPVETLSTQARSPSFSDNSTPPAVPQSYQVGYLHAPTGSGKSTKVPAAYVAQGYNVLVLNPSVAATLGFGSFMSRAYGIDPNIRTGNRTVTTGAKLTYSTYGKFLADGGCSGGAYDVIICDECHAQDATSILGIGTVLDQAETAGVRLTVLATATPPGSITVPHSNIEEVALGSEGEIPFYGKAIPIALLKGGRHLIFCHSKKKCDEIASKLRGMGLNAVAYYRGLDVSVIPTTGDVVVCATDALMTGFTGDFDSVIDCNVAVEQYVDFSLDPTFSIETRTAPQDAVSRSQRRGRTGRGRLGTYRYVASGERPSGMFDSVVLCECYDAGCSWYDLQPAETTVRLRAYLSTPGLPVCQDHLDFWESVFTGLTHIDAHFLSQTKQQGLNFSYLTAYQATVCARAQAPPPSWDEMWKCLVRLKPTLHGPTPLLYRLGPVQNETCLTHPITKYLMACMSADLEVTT
Briefly: In vitro HCV NS3 protease assay (fluorogenic depsipeptide), genotype 3a. In kind it is biochemical, HCV genotype 3a. As to conditions: read-out: IC50 HCV-3a; HCV 3a NS3-NS4A protease.
Excerpt: The NS3-NS4 protease genes of HCV genotypes 2b and 3a were amplified from RNA isolated from clinical samples of HCV-infected patients obtained from Dr. G. Steinmann (Germany) using RT-PCR. The primers used for the RT-PCR were 5′[…]3′ (SEQ ID No. 6) as the forward and 5′[…]3′ (SEQ ID No.7) as the reverse primer for the NS3-NS4A of HCV genotype 2b and; 5′[…]3′ (SEQ ID No. 8) as the forward and 5′[…]3′ (SEQ ID No. 9) as the reverse primer for HCV genotype 3a. Each primer contained a unique restriction site for subcloning the fragment in the bacterial expression vector pET11a. The cloning into the vector generated a recombinant fusion protein containing an additional N-terminal 28 residues that comprised a hexahistidine tag and a rTEV protease cleavage site. The recombinant plasmids were used to transform the bacterial strain BL21 DE3 pLysS for protein expression and recombinant protein expression was induced by the addition of IPTG. Following expression, the cells were collected by centrifugation at 4° C. and the cell pellet lysed in a buffer containing 50 mM sodium phosphate, 0.5M NaCl, 40% glycerol, 1.5% NP-40, 0.5% Triton X-100 and the soluble protein fraction was passed through a 5ml HiTrap chelating affinity column as described above. A poly(U)-Sepharose purification step can optionally be conducted in order to remove degradation products and contaminants. […]
as §1
The calculated % inhibition values were then used to determine IC50, slope factor (n) and maximum inhibition (Imax) by the non-linear regression routine NLIN procedure of SAS using the following equation: [formula] […]

For orientation: IC50 means the point on the concentration scale where inhibition reaches its midpoint. Take `COc1ccc2c(O[C@@H]3C[C@H]4C(=O)N[C@]5(C(=O)O)CC5/C=C\CCCCC[C@H](NC(=O)OC(C)(C)C)C(=O)N4C3)cc(-c3ccccc3)nc2c1` (stereo partly drawn) [II]: the 50% inhibitory concentration (IC50) in assay [1] worked out at 0.68 µM; in assay [2] it was 0.36 µM.

For the compound `COc1ccc2c(O[C@@H]3C[C@H]4C(=O)N[C@]5(C(=O)O)CC5/C=C\CCCCC[C@H](NC(=O)OC(C)(C)C)C(=O)N4C3)cc(-c3csc(NC(C)=O)n3)nc2c1` (stereo partly drawn) [III], the IC50 in assay [1] stood at 0.49 µM; in assay [2] it was 0.19 µM.

As for `COc1ccc2c(O[C@@H]3C[C@H]4C(=O)N[C@]5(C(=O)O)CC5/C=C\CCCCC[C@H](NC(=O)OC5CCCC5)C(=O)N4C3)cc(-c3csc(NC(C)C)n3)nc2c1` (stereo partly drawn) [IV], the results for the IC50 in assay [1] and in assay [2] were 0.2 µM and 0.28 µM, respectively.
